Experimental data taken from ChEMBL document CHEMBL3046393, “3D-QSAR studies of thiosemicarbazone and thiocarbamoylpyrazoline antiamebics” (Med Chem Res, 2013).

The compounds below were run on Entamoeba histolytica (assay: Antiamoebic activity against trophozoite stage of Entamoeba histolytica HM-1:IMSS assessed as parasite growth inhibition after 72 hr by microdilution assay).
Format: functional, organism-based

First: S=C(NC1CCCCCCC1)N1CCC(c2cccc(Cl)c2)=N1
Second: S=C(NC1CCCCC1)N1CCC(c2cccc(Cl)c2)=N1
The IC50 of the first is 1.6-fold lower: 1.5 µM for the first, 2.4 µM for the second.

Going from `CC(C)NC(=S)N1CCC(c2cccc(Cl)c2)=N1` to `CC(C)CNC(=S)N1CCC(c2cccc(Cl)c2)=N1`, the IC50 falls from 12.2 µM to 5 µM (2.4-fold).

Going from `CCN(CC)C(=S)N1CCC(c2ccccc2)=N1` to `CCCN(CCC)C(=S)N1CCC(c2ccccc2)=N1`, the IC50 falls from 4.2 µM to 2 µM (2.1-fold). The second is the more potent here.

`S=C(NC1CCCC1)N1CCC(c2ccccc2)=N1` and `S=C(NC1CCCCC1)N1CCC(c2ccccc2)=N1` are within 1.5-fold of each other in IC50: 6.5 µM for the first, 5.2 µM for the second.

`S=C(NC1CCCC1)N1CCC(c2cccc(Cl)c2)=N1` and `S=C(NC1CCCC1)N1CCC(c2cccc(Br)c2)=N1` are within 1.5-fold of each other in IC50: 3.7 µM for the first, 4.2 µM for the second.

Going from `CC(C)NC(=S)N1CCC(c2ccccc2)=N1` to `CC(C)CNC(=S)N1CCC(c2ccccc2)=N1`, the IC50 falls from 23 µM to 11.2 µM (2.1-fold).

First: S=C(N1CCC(Cc2ccccc2)CC1)N1CCC(c2cccc(Br)c2)=N1
Second: S=C(N1CCC(Cc2ccccc2)CC1)N1CCC(c2ccccc2)=N1
The IC50 of the first is 1.6-fold lower: 1.4 µM for the first, 2.3 µM for the second.

`S=C(NCc1ccccc1Cl)N1CCC(c2cccc(Cl)c2)=N1` and `S=C(NCc1ccccc1Cl)N1CCC(c2cccc(Br)c2)=N1` are within 1.5-fold of each other in IC50: 2.2 µM for the first, 2.6 µM for the second.

Compared with `CCCCNC(=S)N1CCC(c2cccc(Br)c2)=N1`, `CCCNC(=S)N1CCC(c2cccc(Br)c2)=N1` is 1.7-fold lower in IC50: 14.2 µM for the first, 8.5 µM for the second. The second is the more potent here.

First: S=C(NCc1ccccc1Cl)N1CCC(c2ccccc2)=N1
Second: CCCNC(=S)N1CCC(c2ccccc2)=N1
The IC50 of the first is 1.8-fold lower: 7.6 µM for the first, 14 µM for the second.

First: CCCCNC(=S)N1CCC(c2ccccc2)=N1
Second: CCCCNC(=S)N1CCC(c2cccc(Cl)c2)=N1
The IC50 of the first is 1.9-fold higher: 23.3 µM for the first, 12.3 µM for the second. The second is the more potent here.

Going from `S=C(NC1CCCCC1)N1CCC(c2cccc(Br)c2)=N1` to `S=C(NC1CCCCCCC1)N1CCC(c2cccc(Br)c2)=N1`, the IC50 falls from 3.1 µM to 2 µM (1.6-fold). The second is the more potent here.

`CC1CCN(C(=S)N2CCC(c3ccccc3)=N2)CC1` and `CC1CCN(C(=S)N2CCC(c3cccc(Br)c3)=N2)CC1` are within 1.5-fold of each other in IC50: 4.8 µM for the first, 3.6 µM for the second.

Going from `S=C(N1CCN(c2ccccc2)CC1)N1CCC(c2ccccc2)=N1` to `S=C(N1CCN(c2ccccc2)CC1)N1CCC(c2cccc(Cl)c2)=N1`, the IC50 falls from 3.1 µM to 1.2 µM (2.6-fold).

Compared with `CCCCN(C)C(=S)N1CCC(c2ccccc2)=N1`, `CCCCN(C)C(=S)N1CCC(c2cccc(Cl)c2)=N1` is 8.1-fold lower in IC50: 5.7 µM for the first, 0.7 µM for the second.

`S=C(NC1CCCCCCC1)N1CCC(c2ccccc2)=N1` and `CC1CCN(C(=S)N2CCC(c3cccc(Cl)c3)=N2)CC1` are within 1.5-fold of each other in IC50: 2.5 µM for the first, 2.8 µM for the second.

`CCCN(CCC)C(=S)N1CCC(c2cccc(Br)c2)=N1` and `CCCN(CCC)C(=S)N1CCC(c2cccc(Cl)c2)=N1` are within 1.5-fold of each other in IC50: 0.8 µM for the first, 0.6 µM for the second.

Compared with `CCCCN(C)C(=S)N1CCC(c2cccc(Br)c2)=N1`, `CCN(CC)C(=S)N1CCC(c2cccc(Br)c2)=N1` is 2-fold lower in IC50: 2.4 µM for the first, 1.2 µM for the second.

First: CC(C)CNC(=S)N1CCC(c2cccc(Br)c2)=N1
Second: CC(C)/N=C(\S)N1CCC(c2cccc(Br)c2)=N1
The IC50 of the first is 2.5-fold lower: 6.1 µM for the first, 15.2 µM for the second.

Going from `S=C(N1CCN(c2ccccc2)CC1)N1CCC(c2cccc(Br)c2)=N1` to `CCN(CC)C(=S)N1CCC(c2cccc(Cl)c2)=N1`, the IC50 falls from 1.6 µM to 1 µM (1.6-fold).
